Values after ≈ are worked out from the molar mass of the structure shown. Like-named read-outs stand apart in the source and are kept apart here.
What was measured:
[1] = Determination of water solubility, Method 1 (suspension in tap water, weighing); format: physicochemical; details: thermodynamic from solid, room temperature, 18 h stirring, triplicates
Method: (§1) Determination of Water Solubility
10 mg of compound was suspended in 1 L of tap water and the solution was stirred at room temperature for 18 h. Upon completion, solution was sonicated for another hour, centrifuged and the supernatant was separated from the precipitate. Both aliquots were lyophilized, and weighed. This procedure was performed in triplicates.

[2] = Determination of water solubility, Method 2 (HPLC-MS standard curve, saturated solution in water); format: physicochemical; details: thermodynamic from solid; saturated solution in water, HPLC-MS standard curve
Method: as §1
A standard curve with 10 calibration points of the compound of interest is plotted using HPLC-MS and serial dilution. The dilutions and stock solutions were prepared in THF as a solvent. Following the measurements, a saturated solution in water of the compound in study was also measured. Upon plotting the standard curve using the peak areas of the MS peaks, the water samples were plotted along the curve and the solubility was then calculated.

[3] = system: B. subtilis DSM-10; experiment: Antimicrobial assay, MIC by microbroth dilution; format: cell-based; details: Bacillus subtilis, DSM10; 16 h, cation-adjusted Muller-Hinton broth
Method: (§2) Bacterial strains used in susceptibility assays (minimum inhibitory concentrations, MIC) were either part of our internal strain collection or were purchased form the German Collection of Microorganisms and Cell Cultures (DSMZ). All compounds were prepared as DMSO stocks and MIC values were determined in standard microbroth dilution assays. Overnight cultures of bacteria were diluted in cation-adjusted Muller-Hinton broth (BBL™, BD) and were adjusted to approximately 10^5 cfu/mL. […] Bacteria were grown in the presence of the derivatives in serial dilution for 16 h at their optimal growth temperature. MIC values were determined according to CLSI guidelines (antibiotic concentration at which no visible bacterial growth is observed).

[4] = system: C. glutamicum DSM-20300; experiment: Antimicrobial assay, MIC by microbroth dilution; format: cell-based; details: Corynebacterium glutamicum, DSM20300; 16 h, cation-adjusted Muller-Hinton broth
Method: as §2

[5] = system: S. aureus Newman; experiment: Antimicrobial assay, MIC by microbroth dilution; format: cell-based; details: Staphylococcus aureus, NEWMAN; 16 h, cation-adjusted Muller-Hinton broth
Method: as §2

[6] = system: E. coli TolC (+PMBN); experiment: Antimicrobial assay, MIC by microbroth dilution with PMBN; format: cell-based; details: 16 h, 3 μg/mL polymyxin B nonapeptide (PMBN) added
Method: Bacterial strains used in susceptibility assays (minimum inhibitory concentrations, MIC) were either part of our internal strain collection or were purchased form the German Collection of Microorganisms and Cell Cultures (DSMZ). All compounds were prepared as DMSO stocks and MIC values were determined in standard microbroth dilution assays. Overnight cultures of bacteria were diluted in cation-adjusted Muller-Hinton broth (BBL™, BD) and were adjusted to approximately 10^5 cfu/mL. For the E. coli culture, 3 μg/mL of polymyxin B nonapeptide (PMBN) was added to increase permeability of the outer membrane as chlorotonils were previously shown to not penetrate into Gram-negative cells. Bacteria were grown in the presence of the derivatives in serial dilution for 16 h at their optimal growth temperature. MIC values were determined according to CLSI guidelines (antibiotic concentration at which no visible bacterial growth is observed).

[7] = system: L-929 (murine fibroblasts); experiment: Cytotoxicity assay (MTT, 5 d); format: cell-based; details: Mus musculus, L929, 120 h
Method: Cytotoxicity Assay The murine fibroblast cell line L-929 was obtained from the German Collection of Microorganisms and Cell Cultures (DSMZ) and maintained under conditions recommended by the depositor. Cells were seeded at 6×10^3 cells per well of sterile 96-well plates in 180 μL complete medium and treated with the compounds in serial dilution after 2 h of equilibration. After 5 d, viability was assessed by the MTT method. After 1.5 h incubation with 0.5 mg/mL MTT reagent, cells were washed with PBS and 100 μL of 2-propanol/10 N HCl (250:1) was added. The absorbance at 570 nm was determined on a microplate reader and cell viability was expressed as percentage relative to the respective solvent control. Half-inhibitory concentrations (IC50) were determined by sigmoidal curve fitting.

[8] = system: P. falciparum 3D7 (sensitive strain); experiment: Antiplasmodial in vitro drug sensitivity assay (HRP2-ELISA); format: cell-based; details: Plasmodium falciparum, P. falciparum 3D7 (sensitive strain), read-out: IC50 against P. falciparum 3D7
Method: (§3) Two laboratory strains of P. falciparum, the chloroquine sensitive 3D7 and the multi-resistant Dd2 were kept in continuous culture as previously described (Trager and Jensen 1976). In brief, parasites were kept in complete culture medium (RPMI 1640, 25 mM HEPES, 2 mM L-glutamine, 50 μg/ml gentamicin and 0.5% w/v AlbuMAX) at 37° C., 5% CO2 and 5% oxygen at 5% hematocrit with daily change of medium. Synchronization was performed with sorbitol twice a week (Lambros and Vanderberg 1979).
(§4) In Vitro Drug Sensitivity Assay
(§5) All compounds were dissolved in DMSO at stock dilutions between 25 and 100 mM; the reference drug chloroquine diphosphate (MW: 515.86) was diluted in distilled water and DMSO, respectively. […] Antiplasmodial activity of the different compounds was tested in a drug sensitivity assay against the two laboratory strains using the histidine-rich protein 2 (HRP2) assay as described previously (Noedl 2005). In brief: 96 well plates were pre-coated with the different compounds in a threefold dilution before ring stage parasites were added in complete culture medium at a hematocrit of 1.5% and a parasitemia of 0.05% in a total volume of 225 μl per well. After three days of incubation plates were frozen until analyzed by HRP2-ELISA. All compounds were evaluated in duplicate in at least two independent experiments.

[9] = system: P. falciparum Dd2 (resistant strain); experiment: as above; format: cell-based; details: Plasmodium falciparum, P. falciparum Dd2 (resistant strain), read-out: IC50 against P. falciparum Dd2
Method: as §3, §4, §5

[10] = system: Gram-positive bacteria; experiment: Antimicrobial assay, MIC against a range of Gram-positive bacteria (Table 5); format: cell-based; details: read-out: MIC
Method: as §2

[11] = system: zebrafish larvae of the AB wildtype line; experiment: Zebrafish embryo toxicity, maximum tolerated concentration (MTC), AB line; format: in vivo; details: AB line, at five dpf, incubation started at two dpf
Method: (§6) Zebrafish Embryo Toxicity
(§7) The maximum tolerated concentration (MTC) was determined on zebrafish larvae of the AB wildtype line and the TLF wild type line. Larvae were placed into a 96-well plate (one larva per well) and incubated in a solution at different concentrations (100, 50, 25, 10, 1 μM) of ChA, ChA-Epo2, ChB or ChB-Epo at two days post fertilization (dpf) for AB and in a solution at different concentrations of ChA (100, 50 μM) ChA-Epo2 (25, 10, 1 μM), ChB (100, 50 μM) or ChB-Epo (100, 50, 25 μM) at one dpf for TLF. Five zebrafish larvae were used per condition. The incubated embryos were kept in compound solutions at 28° C. until five dpf and monitored daily by microscopy. The final MTC result was recorded at five dpf. Compound solutions were prepared in the larvae medium Danieau's. Additionally a solution of 0.5% DMSO in Danieau's was used as vehicle control and Danieau's alone as a negative control.

[12] = system: zebrafish larvae of the TLF wild type line; experiment: Zebrafish embryo toxicity, maximum tolerated concentration (MTC), TLF line; format: in vivo; details: at five dpf, incubation started at one dpf
Method: as §6, §7

## C[C@@H]1C(=O)O[C@@H](C)/C=C/C=C\[C@@H](C)[C@@H]2C=C[C@@H]3C[C@@](C)(O)[C@H](Cl)[C@@H](C)[C@H]3[C@@H]2C(=O)C(Cl)(Cl)C1=O [ChA-Epo2-Cl]
[1]
  solubility at 18 h: 280 µg/mL (≈ 526 µM)
[2]
  solubility: 320 µg/mL (≈ 602 µM)
[3]
  MIC: 0.1 µg/mL (≈ 0.188 µM)
[4]
  MIC: 0.4 µg/mL (≈ 0.752 µM)
[5]
  MIC: 0.05 µg/mL (≈ 0.094 µM)
[6]
  MIC E. coli TolC (+PMBN): 0.8 µg/mL
[7]
  IC50: 4200 nM
[8]
  IC50: 0.0387 µM
[9]
  IC50: 0.0459 µM

## C[C@@H]1C(=O)O[C@@H](C)/C=C/C=C\[C@@H](C)[C@@H]2C=C[C@@H]3C[C@@](C)(O)[C@H](O[N+](=O)[O-])[C@@H](C)[C@H]3[C@@H]2C(=O)C(Cl)(Cl)C1=O [ChA-Epo2-ONO2]
[1]
  solubility at 18 h: 310 µg/mL (≈ 555 µM)
[2]
  solubility: 380 µg/mL (≈ 680 µM)
[3]
  MIC: 0.025 µg/mL (≈ 0.0448 µM)
[4]
  MIC: 0.1 µg/mL (≈ 0.179 µM)
[5]
  MIC: 0.025 µg/mL (≈ 0.0448 µM)
[6]
  MIC E. coli TolC (+PMBN): 0.1 µg/mL
[8]
  IC50: 0.00092 µM
[9]
  IC50: 0.0022 µM

## CC(C)CCO[C@@H]1[C@@H](C)[C@H]2[C@@H]3C(=O)C(Cl)(Cl)C(=O)[C@H](C)C(=O)O[C@@H](C)/C=C/C=C\[C@@H](C)[C@@H]3C=C[C@@H]2C[C@@]1(C)O [ChA-Epo2-Oisoamyl]
[3]
  MIC: 0.8 µg/mL (≈ 1.37 µM)
[4]
  MIC: 3.2 µg/mL (≈ 5.48 µM)
[5]
  MIC: 1.6 µg/mL (≈ 2.74 µM)
[6]
  MIC E. coli TolC (+PMBN): 0.8 µg/mL
[7]
  IC50: 44700 nM
[8]; μM
  IC50: > 11 µM
[9]; μM
  IC50: > 11 µM

## C[C@@H]1C(=O)O[C@@H](C)/C=C/C=C\[C@@H](C)[C@@H]2C=C[C@@H]3C[C@@]4(C)O[C@H]4[C@@H](C)[C@H]3[C@@H]2C(=O)C(Cl)(Cl)C1=O [ChA-Epo2]
[1]
  solubility at 18 h: 14 µg/mL (≈ 28.3 µM)
[2]
  solubility: 10.3 µg/mL (≈ 20.8 µM)
[3]
  MIC: 0.025 µg/mL (≈ 0.0505 µM)
[4]
  MIC: 0.05 µg/mL (≈ 0.101 µM)
[5]
  MIC: 0.025 µg/mL (≈ 0.0505 µM)
[6]
  MIC E. coli TolC (+PMBN): 0.1 µg/mL
[7]
  IC50: 2100 nM
[8]
  IC50: 0.0513 µM
[9]
  IC50: 0.0871 µM
[10]; Enterococcus faecalis, E. faecalis 20478
  MIC: 0.8 µg/mL (≈ 1.61 µM)
[10]; Enterococcus faecalis, E. faecalis 29212
  MIC: 1.6 µg/mL (≈ 3.23 µM)
[10]; Enterococcus faecium, E. faecium 20477
  MIC: 3.2 µg/mL (≈ 6.46 µM)
[10]; Enterococcus faecium, VRE, E. faecium 17050 (VRE)
  MIC: 0.4 µg/mL (≈ 0.807 µM)
[10]; Micrococcus luteus, M. luteus
  MIC: 0.025 µg/mL (≈ 0.0505 µM)
[10]; Mycolicibacterium smegmatis, M. smegmatis
  MIC: 0.003 µg/mL (≈ 0.00606 µM)
[10]; Priestia megaterium, B. megaterium
  MIC: 0.00125 µg/mL (≈ 0.00252 µM)
[10]; Staphylococcus epidermidis, S. epidermidis 28765
  MIC: 0.2 µg/mL (≈ 0.404 µM)
[10]; Streptococcus pneumoniae, PRSP, S. pneumoniae 11865 (PRSP)
  MIC: 8 µg/mL (≈ 16.1 µM)
[10]; Streptococcus pneumoniae, S. pneumoniae 20566
  MIC: 0.2 µg/mL (≈ 0.404 µM)
[11]; 10 μM
  Observations noted on fish larvae: died
[11]; 25 μM
  Observations noted on fish larvae: died
[11]; 50 μM
  Observations noted on fish larvae: died
[11]; 100 μM
  Observations noted on fish larvae: died
[11]
  MTC (maximum tolerated concentration): 1 µM
[12]; 10 μM
  Observations noted on fish larvae: 4 delayed in development
[12]; 25 μM
  Observations noted on fish larvae: 1 died, 4 delayed in
[12]
  MTC (maximum tolerated concentration): 1 µM
